Measured values published in patent US20140357713A1, “ANTIMICROBIAL COMPOUNDS AND METHODS OF USE” (NexMed Holdings, Inc., priority 2012, published 2014).
Converted amounts (≈) assume the structure as drawn. Structures can show the parent of a compound that is named as a salt. Where two headings read alike, the source gives them in different places.

What was measured:
[1] = test system: Candida albicans (ATCC 90029); experiment: Minimum inhibitory concentration (MIC) assay, Example 33; format: cell-based; details: for MIC: Table 19 summary
Experimental: (§1) Thirty compounds were tested for antimicrobial activity using standard procedures and standard strains for both the minimum inhibitory concentration (MIC) assay and a time kill study. Both the MIC assay and the time kill study were performed according to Clinical and Laboratory Standards Institute (CLSI) guidelines. Three bacteria strains, Escherichia coli (ATCC 25922), Pseudomonas aeruginosa (ATCC 27853), Staphulococcus aureus (ATCC 29213), and two fungus strains, Candida albicans (ATCC 90029) and Aspergillus niger (CMCC 98003), were used in the experiments.
(§2) Preparation of cultures. Before the experiment, two days for the bacteria strains and five days for fungus strains, an aliquot was removed from the cultures frozen at −80° C. Medium was added to the surface of an appropriate agar plate and streaked with the aliquot. The plate was incubated for 20 to 24 hrs at 35±2° C. for bacteria or for 5 days at 26-30° C. in incubator for fungus. From the resulting growth on each plate, one isolated colony of similar morphology was selected and re-streaked onto a fresh agar plate using a sterile disposable loop. The plate was incubated 20 to 24 hrs at 35±2° C. or for 5 days at 26-30° C. in an incubator.
(§3) Preparation of Assay Plates with Medium and Drugs. On the day of the assay, CAMHB medium or RPMI 1640 medium was removed from 4′C storage and allowed to reach room temperature. Ninety microliters (μL) of room temperature CAMHB or RPMI 1640 (supplemented with the appropriate concentration of DMSO, if required) were added to rows B-G of each 96-well microtiter plate. Using a pipette, duplicate 180 μL aliquots of each drug stock solution were added to column 1 (e.g. A1 and B1 or C1 and D1 or E1 and F1 or G1 and H1). Using a multichannel pipette or the Provision 2000 liquid handler, serial 2-fold dilutions (90 μL) were performed in each row across the plate to row G. Eighty μL of compounds dilutions were transferred to a 96-deep well plate. Medium, 1,520 μL of CAMHB or RPMI 1640, was added to each well. The contents of the wells were mixed thoroughly. A 50 μL aliquot of each of the resulting mixtures was transferred to a 96-well assay plate.
For Candida albicans, a sterile inoculating loop was used to transfer growth from an agar plate culture into a tube with RPMI1640 medium. This inoculum was adjusted so that its density at 530 nm was in the ranges from 0.08 to 0.13. The resulting suspension was diluted 1:50 and further diluted 1:20 with the medium to obtain two times test inoculums.
(§4) For Aspergillus niger, sporulating colonies were covered with RPMI 1640, and a suspension was prepared by gently probing the colonies with the tip of a transfer pipette. The suspension was transferred to a sterile tube and mixed with a vortex mixer for 15 seconds. The densities at 530 nm were adjusted to 0.09-0.13 for each sample. The resulting suspension was diluted 1:50 with the medium to obtain two times test inoculums. Fifty μL/well of this inoculum suspension was added to wells of drug-containing plates (1:2 dilution). Plates were incubated at 35° C. for the appropriate times. The MIC was read and recorded according to CLSI guidelines.
(§5) The MIC values for thirty compounds against Escherichia coli, Pseudomonas aeruginosa, Staphulococcus aureus, Candida albicans, and Aspergillus niger were recorded and are presented in Table 3 and Table 4.

[2] = test system: Candida albicans (ATCC 90029); experiment: Time kill study, Example 33 (0 to 5 min); format: cell-based; details: 1×MIC, phosphate
Experimental: as §1
(§6) The viable counts in Log10 CFU/mL at each time point were recorded.
(§7) Time kill studies. Strain suspensions were prepared as described above for the MIC test, and strain suspensions and compound solutions were mixed in the same volume. Samples were removed at specified times including 0 min, 30 sec, 1 min and 5 mins, were diluted in the test medium and streaked on agar. Colonies were counted after 24 to 48 hrs of incubation. […]

[3] = test system: Staphylococcus aureus (ATCC 29213); experiment: Time kill study, Example 33 (0 to 5 min); format: cell-based; details: 1×MIC
Experimental: as §1, §6, §7

pH (Table 1) = format: physicochemical
[4] = test system: Staphulococcus aureus (ATCC 29213); experiment: Minimum inhibitory concentration (MIC) assay, Example 33; format: cell-based, Staphylococcus aureus
Experimental: as §1, §2, §3
(§8) For bacteria, a sterile inoculating loop was used to transfer growth from an agar plate culture into about 5 mL of test medium. Using a turbidity meter, this inoculum was adjusted so that its density (600 nm) was equivalent to a 0.5 McFarland barium sulfate standard (0.08-0.13). The resulting suspension was diluted 1:100 into medium to obtain two times test inoculums.
as §4, §5

[5] = test system: Aspergillus niger (CMCC 98003); experiment: as above; format: cell-based
Experimental: as §1, §2, §3, §4, §5

[6] = test system: Pseudomonas aeruginosa (ATCC 27853); experiment: as above; format: cell-based; details: for MIC: Table 19 summary
Experimental: as §1, §2, §3, §8, §4, §5

[7] = test system: Escherichia coli (ATCC 25922); experiment: as above; format: cell-based
Experimental: as §1, §2, §3, §8, §4, §5

[8] = test system: Pseudomonas aeruginosa (ATCC 27853); experiment: Time kill study, Example 33 (0 to 5 min); format: cell-based; details: 1×MIC
Experimental: as §1, §6, §7

[9] = test system: Escherichia coli (ATCC 25922); experiment: Time kill study, Example 33 (0 to 5 min); format: cell-based; details: 1×MIC
Experimental: as §1, §6, §7

CCCCCCCCCCCCOC(=O)C(C)N(C)C (stereo not shown) [Nex-15, Dodecyl 2-(dimethylamino)propanoate phosphate]
MIC ([1]; phosphate): 50 µg/mL
MIC Candida albicans ([1]; n = 1, phosphate): 50 µg/mL
MIC Candida albicans ([1]; n = 2, phosphate): 50 µg/mL
Viable counts, Candida albicans time kill study ([2]; 0.5 min): 5.23 Log10 CFU/mL
Viable counts, Candida albicans time kill study ([2]; 1 min): 5.25 Log10 CFU/mL
Viable counts, Candida albicans time kill study ([2]; 5 min): 5.28 Log10 CFU/mL
Viable counts, Candida albicans time kill study ([2]; time 0): 5.12 Log10 CFU/mL
Viable counts, Staphylococcus aureus time kill study ([3]; 0.5 min, phosphate): 6.16 Log10 CFU/mL
Viable counts, Staphylococcus aureus time kill study ([3]; 1 min, phosphate): 6.14 Log10 CFU/mL
Viable counts, Staphylococcus aureus time kill study ([3]; 5 min, phosphate): 6.14 Log10 CFU/mL
Viable counts, Staphylococcus aureus time kill study ([3]; time 0, phosphate): 6.23 Log10 CFU/mL
pH (pH (Table 1); phosphate): 2.01
MIC S. aureus ([4]; n = 1, phosphate): 390 µg/mL
MIC S. aureus ([4]; n = 2, phosphate): 200 µg/mL
MIC ([5]; Table 19 summary, phosphate): 12500 µg/mL
MIC Aspergillus niger ([5]; n = 1, phosphate): 12500 µg/mL
MIC ([6]; phosphate): >12500 µg/mL
MIC P. aeruginosa ([6]; n = 1, phosphate): >12500 µg/mL
MIC P. aeruginosa ([6]; n = 2, phosphate): >12500 µg/mL
MIC (mg/ml) ([7]; Table 19 summary of Example 33 and Example 35, phosphate): ≧12.5 mg/ml
MIC E. coli ([7]; n = 1, phosphate): >12500 µg/mL
MIC E. coli ([7]; n = 2, phosphate): >12500 µg/mL

CCCCCCCCCCCCOC(=O)C(C)N(C)C (stereo not shown) [Nex-20, Dodecyl 2-(dimethylamino)propanoate maleate]
MIC ([1]; maleate): 12500 µg/mL
MIC Candida albicans ([1]; n = 1, maleate): 12500 µg/mL
MIC Candida albicans ([1]; n = 2, maleate): 12500 µg/mL
Viable counts, Pseudomonas aeruginosa time kill study ([8]; 0.5 min, maleate): <4.0 Log10 CFU/mL
Viable counts, Pseudomonas aeruginosa time kill study ([8]; 1 min, maleate): 3.7 Log10 CFU/mL
Viable counts, Pseudomonas aeruginosa time kill study ([8]; 5 min): <3.52 Log10 CFU/mL
Viable counts, Pseudomonas aeruginosa time kill study ([8]; time 0, maleate): 5.56 Log10 CFU/mL
Viable counts, Escherichia coli time kill study ([9]; 0.5 min, maleate): 5.84 Log10 CFU/mL
Viable counts, Escherichia coli time kill study ([9]; 1 min, maleate): 5.92 Log10 CFU/mL
Viable counts, Escherichia coli time kill study ([9]; 5 min, maleate): 4.37 Log10 CFU/mL
Viable counts, Escherichia coli time kill study ([9]; time 0, maleate): 5.86 Log10 CFU/mL
Viable counts, Staphylococcus aureus time kill study ([3]; 0.5 min, maleate): 6.18 Log10 CFU/mL
Viable counts, Staphylococcus aureus time kill study ([3]; 1 min, maleate): 6.15 Log10 CFU/mL
Viable counts, Staphylococcus aureus time kill study ([3]; 5 min, maleate): 5.61 Log10 CFU/mL
Viable counts, Staphylococcus aureus time kill study ([3]; time 0, maleate): 6.15 Log10 CFU/mL
pH (pH (Table 1); maleate): 3.39
MIC S. aureus ([4]; n = 1, maleate): 3130 µg/mL
MIC S. aureus ([4]; n = 2, maleate): 1560 µg/mL
MIC ([5]; Aspergillus niger, CMCC98003, Table 19 summary, read-out: MIC): > 12500 µg/mL
MIC Aspergillus niger ([5]; n = 1, maleate): >12500 µg/mL
MIC ([6]; maleate): 6250 µg/mL
MIC P. aeruginosa ([6]; n = 1, maleate): 6250 µg/mL
MIC P. aeruginosa ([6]; n = 2, maleate): 6250 µg/mL
MIC ([7]; Table 19 summary of Example 33 and Example 35, maleate): 1560 µg/mL
MIC E. coli ([7]; n = 1, maleate): 1560 µg/mL
MIC E. coli ([7]; n = 2, maleate): 1560 µg/mL

CCCCCCCCCCCCOC(=O)C(C)N(C)C (stereo not shown) [Nex-46, Dodecyl 2-(dimethylamino)propanoate 2-hydroxyethanesulfonate]
MIC [1]: >12500 µg/mL
MIC Candida albicans ([1]; n = 1): >12500 µg/mL
MIC Candida albicans ([1]; n = 2): >12500 µg/mL
Viable counts, Pseudomonas aeruginosa time kill study ([8]; 0.5 min): 4.48 Log10 CFU/mL
Viable counts, Pseudomonas aeruginosa time kill study ([8]; 1 min): 3.7 Log10 CFU/mL
Viable counts, Pseudomonas aeruginosa time kill study ([8]; 5 min): <3.52 Log10 CFU/mL
Viable counts, Pseudomonas aeruginosa time kill study ([8]; time 0): 5.67 Log10 CFU/mL
Viable counts, Escherichia coli time kill study ([9]; 0.5 min): 5.74 Log10 CFU/mL
Viable counts, Escherichia coli time kill study ([9]; 1 min): 5.91 Log10 CFU/mL
Viable counts, Escherichia coli time kill study ([9]; 5 min): 3.97 Log10 CFU/mL
Viable counts, Escherichia coli time kill study ([9]; time 0): 5.87 Log10 CFU/mL
Viable counts, Staphylococcus aureus time kill study ([3]; 0.5 min): 6.25 Log10 CFU/mL
Viable counts, Staphylococcus aureus time kill study ([3]; 1 min): 6.21 Log10 CFU/mL
Viable counts, Staphylococcus aureus time kill study ([3]; 5 min): 6.21 Log10 CFU/mL
Viable counts, Staphylococcus aureus time kill study ([3]; time 0): 6.26 Log10 CFU/mL
pH (pH (Table 1)): 2.95
MIC ([4]; Table 19 summary): 3130 µg/mL (≈ 11 mM)
MIC S. aureus ([4]; n = 1): 3130 µg/mL (≈ 11 mM)
MIC S. aureus ([4]; n = 2): 3130 µg/mL (≈ 11 mM)
MIC ([5]; Table 19 summary): >12500 µg/mL
MIC Aspergillus niger ([5]; n = 1): >12500 µg/mL
MIC Aspergillus niger ([5]; n = 2): >12500 µg/mL
MIC [6]: 6250 µg/mL (≈ 21.9 mM)
MIC P. aeruginosa ([6]; n = 1): 6250 µg/mL (≈ 21.9 mM)
MIC P. aeruginosa ([6]; n = 2): 6250 µg/mL (≈ 21.9 mM)
MIC ([7]; Table 19 summary of Example 33 and Example 35): 3130 µg/mL (≈ 11 mM)
MIC E. coli ([7]; n = 1): 3130 µg/mL (≈ 11 mM)
MIC E. coli ([7]; n = 2): 3130 µg/mL (≈ 11 mM)
